# According to patent publication US12187742B2 (XRAD Therapeutics, Inc., priority 2018, dated 2025):
# Counter-ions that a name gives are not always drawn.
# Legend:
# [1] = biological target: ATM (Homo sapiens (Human), UniProt Q13315); test: ATM in Cell Western Assay (pKAP1 in etoposide-treated MCF-7 cells); format: cell-based; conditions: MCF-7 cells, etoposide 100 μM, 1 hr, pKAP1 readout
# Procedure, shortened: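 Cells received compounds in a 10-dose, 3-fold series from a 1 μM final top concentration, then 100 μM etoposide, for 1 hr at 37° C. They were then fixed with paraformaldehyde and permeabilized with 0.1% Triton X-100. After immunostaining, plates were scanned on an infrared imager.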
# [2] = biological target: DNA-PK (Homo sapiens (Human), UniProt P78527); test: DNA-PK Enzyme-Linked Immunosorbent Assay (phosphorylation of GST-p53 (1-101) peptide); format: biochemical; conditions: ELISA, ATP 20 μM
# Procedure, shortened: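 ELISA with plate-bound GST-p53 (1-101) phosphorylated by DNA-PK (0.1 μg/mL final) with 20 μM ATP for 1 h at 25 °C. Compounds tested over 10 3-fold doses from 100 nM top final. Phospho-p53 Ser15 detected by antibody, HRP and TMB, absorbance at 450 nm.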
# Sequence of ATM (Q13315 whole entry): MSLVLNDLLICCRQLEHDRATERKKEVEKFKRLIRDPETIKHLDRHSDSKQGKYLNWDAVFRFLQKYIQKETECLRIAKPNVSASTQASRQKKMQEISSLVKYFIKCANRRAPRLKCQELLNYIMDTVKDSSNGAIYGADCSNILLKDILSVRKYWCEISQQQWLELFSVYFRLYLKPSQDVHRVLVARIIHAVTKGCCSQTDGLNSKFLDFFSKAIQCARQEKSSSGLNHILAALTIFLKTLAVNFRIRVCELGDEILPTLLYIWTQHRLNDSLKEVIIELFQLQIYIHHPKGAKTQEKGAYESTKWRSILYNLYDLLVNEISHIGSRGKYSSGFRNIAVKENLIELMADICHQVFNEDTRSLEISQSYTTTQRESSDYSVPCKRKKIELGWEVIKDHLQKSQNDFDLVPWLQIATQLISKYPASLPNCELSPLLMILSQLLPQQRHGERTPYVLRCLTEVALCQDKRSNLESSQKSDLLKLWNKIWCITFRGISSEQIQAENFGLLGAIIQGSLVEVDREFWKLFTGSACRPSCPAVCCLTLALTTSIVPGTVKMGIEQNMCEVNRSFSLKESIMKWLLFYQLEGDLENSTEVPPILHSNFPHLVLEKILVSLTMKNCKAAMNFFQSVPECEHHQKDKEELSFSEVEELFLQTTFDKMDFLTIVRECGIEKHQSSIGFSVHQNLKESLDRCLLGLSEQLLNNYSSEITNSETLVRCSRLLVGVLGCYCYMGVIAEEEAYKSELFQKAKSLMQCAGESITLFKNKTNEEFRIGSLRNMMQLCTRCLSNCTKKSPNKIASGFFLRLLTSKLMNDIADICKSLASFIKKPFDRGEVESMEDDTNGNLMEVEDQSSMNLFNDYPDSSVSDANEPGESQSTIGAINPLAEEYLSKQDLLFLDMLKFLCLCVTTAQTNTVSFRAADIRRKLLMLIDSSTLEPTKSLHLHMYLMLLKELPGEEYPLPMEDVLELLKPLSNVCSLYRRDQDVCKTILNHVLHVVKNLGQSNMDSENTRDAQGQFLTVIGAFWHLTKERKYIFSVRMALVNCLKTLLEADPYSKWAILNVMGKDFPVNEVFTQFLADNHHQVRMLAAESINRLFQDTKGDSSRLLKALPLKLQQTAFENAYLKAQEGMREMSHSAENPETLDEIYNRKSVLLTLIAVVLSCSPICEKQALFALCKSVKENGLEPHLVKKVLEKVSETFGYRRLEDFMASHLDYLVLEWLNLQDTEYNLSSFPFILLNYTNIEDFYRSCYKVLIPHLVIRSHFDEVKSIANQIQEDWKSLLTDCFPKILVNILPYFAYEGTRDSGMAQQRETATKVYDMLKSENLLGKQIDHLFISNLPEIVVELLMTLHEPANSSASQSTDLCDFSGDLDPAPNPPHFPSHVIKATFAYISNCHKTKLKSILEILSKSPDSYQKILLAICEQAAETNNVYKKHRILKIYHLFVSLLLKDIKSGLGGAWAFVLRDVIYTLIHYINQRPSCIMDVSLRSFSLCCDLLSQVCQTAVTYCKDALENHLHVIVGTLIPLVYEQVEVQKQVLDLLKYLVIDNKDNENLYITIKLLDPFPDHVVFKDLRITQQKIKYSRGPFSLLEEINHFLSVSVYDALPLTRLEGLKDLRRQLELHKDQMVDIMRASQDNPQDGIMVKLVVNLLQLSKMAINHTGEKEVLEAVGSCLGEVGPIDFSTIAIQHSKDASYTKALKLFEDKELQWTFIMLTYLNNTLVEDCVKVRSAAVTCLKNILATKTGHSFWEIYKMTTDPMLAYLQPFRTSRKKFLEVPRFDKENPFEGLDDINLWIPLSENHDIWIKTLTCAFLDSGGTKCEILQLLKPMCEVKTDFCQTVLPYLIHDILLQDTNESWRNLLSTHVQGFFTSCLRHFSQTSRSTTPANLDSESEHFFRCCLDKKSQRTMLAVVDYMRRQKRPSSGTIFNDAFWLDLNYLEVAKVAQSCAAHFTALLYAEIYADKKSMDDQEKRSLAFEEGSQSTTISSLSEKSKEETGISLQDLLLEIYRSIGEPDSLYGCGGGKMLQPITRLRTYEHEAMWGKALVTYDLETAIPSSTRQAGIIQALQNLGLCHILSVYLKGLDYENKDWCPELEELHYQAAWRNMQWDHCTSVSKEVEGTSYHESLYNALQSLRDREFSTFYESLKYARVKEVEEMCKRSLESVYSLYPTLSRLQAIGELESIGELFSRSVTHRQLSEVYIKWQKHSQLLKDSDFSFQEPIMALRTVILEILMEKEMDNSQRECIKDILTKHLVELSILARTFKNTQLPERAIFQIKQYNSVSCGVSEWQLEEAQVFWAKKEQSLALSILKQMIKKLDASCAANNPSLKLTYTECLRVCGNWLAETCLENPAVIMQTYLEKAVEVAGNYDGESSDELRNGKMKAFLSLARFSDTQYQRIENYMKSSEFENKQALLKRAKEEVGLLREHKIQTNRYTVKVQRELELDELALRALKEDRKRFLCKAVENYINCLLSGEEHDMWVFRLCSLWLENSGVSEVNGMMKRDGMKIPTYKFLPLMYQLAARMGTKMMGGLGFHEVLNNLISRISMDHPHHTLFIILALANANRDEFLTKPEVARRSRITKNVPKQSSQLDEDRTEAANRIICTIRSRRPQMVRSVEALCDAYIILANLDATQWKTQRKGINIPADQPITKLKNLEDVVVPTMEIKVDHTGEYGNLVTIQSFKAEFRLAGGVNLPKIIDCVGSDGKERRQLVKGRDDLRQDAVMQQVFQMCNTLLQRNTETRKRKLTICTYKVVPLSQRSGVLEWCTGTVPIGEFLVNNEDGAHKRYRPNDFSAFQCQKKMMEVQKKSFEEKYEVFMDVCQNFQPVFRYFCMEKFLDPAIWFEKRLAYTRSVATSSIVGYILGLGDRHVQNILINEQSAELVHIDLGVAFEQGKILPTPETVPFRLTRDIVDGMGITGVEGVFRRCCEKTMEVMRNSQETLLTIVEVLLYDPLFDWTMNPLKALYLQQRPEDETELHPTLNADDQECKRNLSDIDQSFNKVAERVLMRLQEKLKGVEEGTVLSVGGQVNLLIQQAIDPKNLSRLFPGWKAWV
SMILES,IC50 [1] [nM],IC50 [2] [nM]
"CN1C(=O)C2(CCC2)c2c1cnc1ccc(-c3cnc(OCC(O)CN4CCCCC4)c(NS(C)(=O)=O)c3)cc21 (stereo not shown) [Example 287, N-(2-(2-Hydroxy-3-(piperidin-1-yl)propoxy)-5-(3′-methyl-2′-oxo-2′,3′-dihydrospiro[cyclobutane-1,1′-pyrrolo[2,3-c]quinolin]-8′-yl)pyridin-3-yl)methanesulfonamide]",1 to 100,< 0.5
"CN1C(=O)C2(CCC2)c2c1cnc1ccc(-c3cnc(N4CC(N(C)C)C4)c(NS(=O)(=O)N(C)C)c3)cc21 [Example 288, 8′-(6-[3-(Dimethylamino)azetidin-1-yl]-5-[(dimethylsulfamoyl)amino]pyridin-3-yl}-3′-methyl-2′,3′-dihydrospiro [cyclobutane-1,1′-pyrrolo[2,3-c]quinoline]-2′-one]",1 to 100,0.5 to 1
"Cc1ncc(S(=O)(=O)Nc2cc(-c3ccc4ncc5c(c4c3)C3(CCC3)C(=O)N5C)cnc2OCCCN(C)C)s1 [Example 289, N-(2-(3-(Dimethylamino)propoxy)-5-(3′-methyl-2′-oxo-2′,3′-dihydrospiro [cyclobutane-1,1′-pyrrolo [2,3-c]quinolin]-8′-yl)pyridin-3-yl)-2-methylthiazole-5-sulfonamide]",1 to 100,0.5 to 1
"CN(C)CCCOc1ncc(-c2cc3c4c(cnc3cc2F)N(C)C(=O)C42CCC2)cc1NS(=O)(=O)N(C)C [Example 290, 8′-{6-[3-(Dimethylamino)propoxy]-5-[(dimethylsulfamoyl)amino]pyridin-3-yl}-7′-fluoro-3′-methyl-2′,3′-dihydrospiro[cyclobutane-1,1′-pyrrolo[2,3-c]quinoline]-2′-one hydrochloride]",1 to 100,0.5 to 1
"CN(C)CCCOc1ncc(-c2cc3c4c(cnc3cc2F)N(C)C(=O)C42CCC2)cc1NS(C)(=O)=O [Example 291, N-(2-(3-(Dimethylamino)propoxy)-5-(7′-fluoro-3′-methyl-2′-oxo-2′,3′-dihydrospiro [cyclobutane-1,1′-pyrrolo[2,3-c]quinolin]-8′-yl)pyridin-3-yl)methanesulfonamide hydrochloride]",1 to 100,1 to 100
"CN(CCC#N)CCCOc1ncc(-c2ccc3ncc4c(c3c2)C2(CCC2)C(=O)N4C)cc1NS(C)(=O)=O [Example 293, N-(2-(3-((2-Cyanoethyl)(methyl)amino)propoxy)-5-(3′-methyl-2′-oxo-2′3′-dihydrospiro[cyclobutane-1,1′-pyrrolo[2,3-c]quinolin]-8′-yl)pyridin-3-yl)methanesulfonamide]",> 100,> 100
"COCCN(C)CCCOc1ncc(-c2cc3c4c(cnc3cc2F)N(C)C(=O)C42CCC2)cc1NS(=O)(=O)N1CCOCC1 [Example 294, N-(5-(7′-Fluoro-3′-methyl-2′-oxo-2′,3′-dihydrospiro[cyclobutane-1,1′-pyrrolo[2,3-c]quinolin]-8′-yl)-2-(3-((2-methoxyethyl)(methyl)amino)propoxy)pyridin-3-yl)morpholine-4-sulfonamide]",1 to 100,1 to 100
"CN(C)CC(O)COc1ncc(-c2ccc3ncc4c(c3c2)C2(CCC2)C(=O)N4C)cc1NS(C)(=O)=O (stereo not shown) [Example 295, N-(2-(3-(Dimethylamino)-2-hydroxypropoxy)-5-(3′-methyl-2′-oxo-2′,3′-dihydrospiro[cyclobutane-1,1′-pyrrolo[2,3-c]quinolin]-8′-yl)pyridin-3-yl)methanesulfonamide]",1 to 100,0.5 to 1
"CN1C(=O)C2(CCC2)c2c1cnc1cc(F)c(-c3cnc(OCCCN4CCC(F)CC4)c(NS(C)(=O)=O)c3)cc21 [Example 297, N-(5-(7′-Fluoro-3′-methyl-2′-oxo-2′,3′-dihydrospiro[cyclobutane-1,1′-pyrrolo[2,3-c]quinolin]-8′-yl)-2-(3-(4-fluoropiperidin-1-yl)propoxy)pyridin-3-yl)methanesulfonamide hydrochloride]",1 to 100,1 to 100
"CN1CCN(CCCOc2ncc(-c3ccc4ncc5c(c4c3)C3(CCC3)C(=O)N5C)cc2NS(C)(=O)=O)CC1 [Example 299, N-(5-(3′-Methyl-2′-oxo-2′,3′-dihydrospiro[cyclobutane-1,1′-pyrrolo[2,3-c]quinolin]-8′-yl)-2-(3-(4-methylpiperazin-1-yl)propoxy)pyridin-3-yl)methanesulfonamide]",1 to 100,1 to 100
"CN1C(=O)C2(CCC2)c2c1cnc1ccc(-c3cnc(OCCCN4CCCCC4)c(NS(=O)(=O)C(F)F)c3)cc21 [Example 302, 1,1-Difluoro-N-(5-(3-methyl-2′-oxo-2′,3′-dihydrospiro[cyclobutane-1,1′-pyrrolo[2,3-c]quinolin]-8-yl)-2-(3-(piperidin-1-yl)propoxy)pyridin-3-yl)methanesulfonamide]",1 to 100,< 0.5

# More lines, now with the values ahead:
IC50 [1] [nM],IC50 [2] [nM],SMILES
1 to 100,0.5 to 1,"CN1C(=O)C2(CCC2)c2c1cnc1ccc(-c3cnc(OCCCN4CCOCC4)c(NS(=O)(=O)N(C)C)c3)cc21 [Example 304, 8′-{5-[(Dimethylsulfamoyl)amino]-6-[3-(morpholin-4-yl)propoxy]pyridin-3-yl)-3′-methyl-2′,3′-dihydrospiro[cyclobutane-1,1′-pyrrolo[2,3-c]quinoline]-2′-one]"
1 to 100,1 to 100,"CN1C(=O)C2(CCC2)c2c1cnc1ccc(-c3cnc(OCCCN4CCOCC4)c(NS(C)(=O)=O)c3)cc21 [Example 305, N-(5-(3′-Methyl-2′-oxo-2′,3′-dihydrospiro[cyclobutane-1,1′-pyrrolo[2,3-c]quinolin]-8′-yl)-2-(3-morpholinopropoxy)pyridin-3-yl)methanesulfonamide]"
1 to 100,1 to 100,"CN1C(=O)C2(CCC2)c2c1cnc1ccc(-c3cnc(OCCCN4CCOCC4)c(NS(=O)(=O)C4CC4)c3)cc21 [Example 306, N-(5-(3′-Methyl-2′-oxo-2′,3′-dihydrospiro[cyclobutane-1,1′-pyrrolo[2,3-c]quinolin]-8′-yl)-2-(3-morpholinopropoxy)pyridin-3-yl)cyclopropanesulfonamide]"
1 to 100,0.5 to 1,CN1C(=O)C2(CCC2)c2c1cnc1ccc(-c3cnc(OCCNC(C)(C)C)c(NS(C)(=O)=O)c3)cc21 [Example 309]
1 to 100,1 to 100,"COC1CN(S(=O)(=O)Nc2cc(-c3cc4c5c(cnc4cc3F)N(C)C(=O)C53CCC3)cnc2N2CC(N(C)C)C2)C1 [Example 311, N-(2-(3-(Dimethylamino)azetidin-1-yl)-5-(7′-fluoro-3′-methyl-2′-oxo-2′,3′-dihydrospiro[cyclobulane-1,1′-pyrrolo[2,3-c]quinolin]-8′-yl)pyridin-3-yl)-3-methoxyazetidine-1-sulfonamide formate]"
1 to 100,1 to 100,"CN1C(=O)C2(CCC2)c2c1cnc1cc(F)c(-c3cnc(N4CC(N(C)C)C4)c(NS(=O)(=O)c4ccc(F)cc4F)c3)cc21 [Example 315, N-(2-(3-(Dimethylamino)azetidin-1-yl)-5-(7′-fluoro-3′-methyl-2′-oxo-2′,3′-dihydrospiro[cyclobulane-1,1′-pyrrolo[2,3-c]quinolin]-8′-yl)pyridin-3-yl)-2,4-difluorobenzenesulfonamide hydrochloride]"
